Test results: patent publication US20200352931A1, “OXALAMIDES AS MODULATORS OF INDOLEAMINE 2,3-DIOXYGENASE” (PHENEX DISCOVERY VERWALTUNGS-GMBH, priority 2017, published 2020)

Target: T1, Indoleamine 2,3-Dioxygenase (IDO1) in SKOV-3 cells (Homo sapiens, UniProt P14902)
T1 construct: endogenous in cells; host or cells: SKOV-3 (ATCC HTB-77), stimulated with 50 ng/ml interferon gamma
Assay: SKOV-3 cellular indoleamine 2,3-dioxygenase assay
Details: 50 ng/ml Interferon gamma, 100 μM L-Tryptophan, 24 hours, N-Formylkynurenin fluorescence, read-out: cell based activity (IC50)
Description: SKOV-3 Cellular Indoleamine 2,3-Dioxygenase Assay
SKOV-3 cells were obtained from the American Type Culture Collection (ATCC® HTB-77™) and maintained in McCoy's medium (Pan Biotech) supplemented with 10% fetal bovine serum and 1% Penicilin/Streptomycin. Cells were kept at 37° C. in a humidified incubator with 5% CO2. For assay preparation, cells were seeded at a density of 2*10^5/m into black clear bottom 96 well plates in 100 μl medium/well supplemented with 50 ng/ml Interferon gamma (eBioscience, Thermo Fisher Scientific). After cells fully adhered to the plate, dilution series of compounds were added in medium containing additional L-Tryptophan to a final L-Tryptophan concentration of 100 μM. The cells were incubated for 24 hours. Detection of produced N-Formylkynurenin was performed by addition of 3-Methylpiperidine to a final concentration of 200 mM. The plates were sealed and heated to 65° C. for 20 minutes in a water bath. After cooling the fluorescence of each well was recorded with a Victor™ X4 (PerkinElmer) plate reader at an emission wavelength of 535 nm and excitation at 405 nm (Tomek et al.; Anal Bioanal Chem (2013) 405:2515-2524., Tomek et al.; Biochim Biophys Acta. 2015 September; 1850(9):1772-80).

T1 sequence (P14902 whole entry): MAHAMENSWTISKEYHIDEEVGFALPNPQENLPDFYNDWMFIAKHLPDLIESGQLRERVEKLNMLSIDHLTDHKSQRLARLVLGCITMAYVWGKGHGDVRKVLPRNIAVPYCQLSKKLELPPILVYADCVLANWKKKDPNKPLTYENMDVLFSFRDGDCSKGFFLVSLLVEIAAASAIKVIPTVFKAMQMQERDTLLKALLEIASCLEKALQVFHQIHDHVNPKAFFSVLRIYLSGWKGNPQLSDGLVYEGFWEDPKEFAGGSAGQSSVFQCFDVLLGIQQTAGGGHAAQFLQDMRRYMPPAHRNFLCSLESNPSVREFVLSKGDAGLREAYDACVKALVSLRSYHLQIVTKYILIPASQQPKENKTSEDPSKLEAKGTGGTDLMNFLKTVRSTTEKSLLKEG

Row | IC50 [nM] | SMILES
1 | > 1000 | NC(=O)c1ccc2nccc(C3CCN(C(=O)C(=O)Nc4ccc(Cl)cc4)CC3)c2c1 [1/43]
2 | 100 to 1000 | O=C(Nc1cccc(C(F)(F)F)c1)C(=O)N1CCC(c2ccnc3ccc(F)cc23)CC1 [1/15]
3 | > 1000 | O=C(Nc1ccc(Cl)cn1)C(=O)N1CCC2(CC1)NC(=O)c1ccccc12 [100/6]
4 | < 100 | O=C(Nc1ccc(Cl)cc1)C(=O)N1CCC(c2ccccc2)CC1 [1/1]
5 | > 1000 | O=C(Nc1ccc(F)c(Cl)c1)C(=O)N1CCC(c2ccccc2)CC1 [1/16]
6 | < 100 | CO[C@@H]1CN(C(=O)C(=O)Nc2ccc(Cl)cc2)CC[C@H]1c1ccnc2ccc(F)cc12 (single isomer, unassigned) [10/2a]
7 | < 100 | O=C(Nc1ccc(F)cc1)C(=O)N1CCC(c2ccnc3ccc(F)cc23)CC1 [1/28]
8 | < 100 | CO[C@H]1CN(C(=O)C(=O)Nc2ccc(Cl)cc2)CC[C@@H]1c1ccnc2ccc(F)cc12 (single isomer, unassigned) [10/2b]
9 | 100 to 1000 | O=C(Nc1ccc(Cl)cn1)C(=O)N1CCC(F)(c2ccnc3ccccc23)CC1 [1/35]
10 | < 100 | O=C(Nc1ncc(Cl)cc1F)C(=O)N1CCC(c2ccnc3ccc(F)cc23)CC1 [1/29]
11 | > 1000 | O=C(Nc1ccc(Cl)cn1)C(=O)N1CCC2(CC1)OCc1ccc(Cl)cc12 [100/15]
12 | 100 to 1000 | O=C(Nc1ccc(Cl)cc1)C(=O)N1CC[C@H](c2ccnc3ccc(F)cc23)[C@H](O)C1 (single isomer, unassigned) [10/1a]
13 | < 100 | O=C(Nc1ccc(CCCl)cc1)C(=O)N1CCC(c2ccnc3ccc(F)cc23)CC1 [Example 7, N-(4-(2-Chloroethyl)phenyl)-2-(4-(6-fluoroquinolin-4-yl)piperidin-1-yl)-2-oxoacetamide]
14 | 100 to 1000 | N#Cc1ccc(C2CCN(C(=O)C(=O)Nc3ccc(Cl)cn3)CC2)c2ccccc12 [2/6]
15 | < 100 | O=C(Nc1ccc(Cl)cc1)C(=O)N1CCC2(CC1)OCc1cc(C(F)(F)F)ccc12 [100/12]
16 | > 1000 | NS(=O)(=O)c1ccc(NC(=O)C(=O)N2CCC(c3ccnc4ccc(F)cc34)CC2)cc1 [5/8]
17 | < 100 | O=C(Nc1ccc(SC(F)(F)F)cc1)C(=O)N1CCC(c2ccnc3ccc(F)cc23)CC1 [1/38]

Row | IC50 [nM] | SMILES
18 | < 100 | O=C(Nc1ccc(Br)cc1F)C(=O)N1CCC(c2ccnc3ccc(F)cc23)CC1 [1/26]
19 | < 100 | N#Cc1ccc(NC(=O)C(=O)N2CCC(c3ccnc4ccc(F)cc34)CC2)c(F)c1 [1/23]
20 | 100 to 1000 | O=C(Nc1ccc(-c2cnccn2)cn1)C(=O)N1CCC(c2ccnc3ccc(F)cc23)CC1 [5/4]
21 | 100 to 1000 | N#Cc1ccc2nccc(C3CCN(C(=O)C(=O)Nc4ccc(Cl)cc4)CC3)c2c1 [1/44]
22 | < 100 | O=C(Nc1cc(F)c(Cl)cc1F)C(=O)N1CCC(c2ccnc3ccc(F)cc23)CC1 [1/19]
23 | < 100 | O=C(Nc1ccc(Cl)c(F)c1)C(=O)N1CCC(c2ccnc3ccc(F)cc23)CC1 [1/18]
24 | < 100 | CC1(C)CN(C(=O)C(=O)Nc2ccc(Cl)cc2)CCC1c1ccnc2ccc(F)cc12 (stereo not shown) [1/45]
25 | < 100 | O=C(Nc1ccc(C(F)F)cc1F)C(=O)N1CCC(c2ccnc3ccc(F)cc23)CC1 [1/25]
26 | < 100 | Cc1ccc(NC(=O)C(=O)N2CCC(c3ccnc4ccc(F)cc34)CC2)c(F)c1 [1/24]
27 | > 1000 | O=C(Nc1ccc(Cl)cc1F)C(=O)N1CCC(c2ccccc2)C1 (stereo not shown) [1/7]
28 | 100 to 1000 | Cc1nc(NC(=O)C(=O)N2CCC(c3ccnc4ccc(F)cc34)CC2)ccc1Cl [5/3]
29 | 100 to 1000 | O=C(Nc1ccc(Cl)cc1F)C(=O)N1CCC(c2cc(C(F)(F)F)nc3ccccc23)CC1 [1/4]
30 | < 100 | O=C(Nc1ccc(Cl)cc1)C(=O)N1CCC(c2ccnc3ccccc23)CC1 [1/3]
31 | 100 to 1000 | O=C(Nc1ccc(Cl)cn1)C(=O)N1C2CCC1CC(c1ccnc3ccccc13)C2 (stereo not shown) [1/10]
32 | < 100 | O=C(Nc1ccc(Cl)cn1)C(=O)N1CCC2(CCc3ccccc32)CC1 [Example 100]
33 | > 1000 | O=C(NCC1CC1)C(=O)N1CCC(c2ccnc3ccc(F)cc23)CC1 [8/4]
34 | > 1000 | O=C(Nc1ccc(Cl)cn1)C(=O)N1CCC(O)(c2ccnc3ccccc23)CC1 [1/9]
